Source: US20220062240A1, “METHODS OF TREATING CANCER USING A CLK INHIBITOR” (BioSplice Therapeutics, Inc., priority 2018, published 2022)
Read-outs that look alike come from different tables or passages of the source.

How the values were obtained:
[1] = molecular target: T1, CLK2 (Homo sapiens, UniProt P49760); assay: CLK2 kinase activity assay (Z-lyte, Ser/Thr 6 peptide); assay type: biochemical; conditions: recombinant CLK2 kinase, ATP 60 μM; read-out: EC50
T1 construct: purchased Thermo Fisher (Life Technologies), Z'-LYTE Kinase Assay Kits
Protocol: All reactions were performed in duplicate.

[2] = system: BT-549; assay: CellTiter-Glo Viability Assay, breast cancer; assay type: cell-based; conditions: Homo sapiens, 96 h; BT-549, breast cancer, four days; read-out: EC50
[3] = system: CAMA1; assay: CellTiter-Glo Viability Assay, breast cancer; assay type: cell-based; conditions: Homo sapiens, CAMA-1, 96 h; CAMA1, breast cancer, four days; read-out: EC50
[4] = system: DU4475; assay: CellTiter-Glo Viability Assay, breast cancer; assay type: cell-based; conditions: Homo sapiens, DU-4475, 96 h; DU4475, breast cancer, four days; read-out: EC50
[5] = system: HCC1599; assay: CellTiter-Glo Viability Assay, breast cancer; assay type: cell-based; conditions: Homo sapiens, 96 h; HCC1599, breast cancer, four days; read-out: EC50
[6] = system: MCF7; assay: CellTiter-Glo Viability Assay, breast cancer; assay type: cell-based; conditions: Homo sapiens, 96 h; MCF7, breast cancer, four days; read-out: EC50
[7] = system: MDA-MB-231-Luc; assay: CellTiter-Glo Viability Assay, breast cancer; assay type: cell-based; conditions: Homo sapiens, 96 h; MDA-MB-231-Luc, breast cancer, four days; read-out: EC50
[8] = system: T47D; assay: CellTiter-Glo Viability Assay, breast cancer; assay type: cell-based; conditions: Homo sapiens, 96 h, breast cancer, four days, read-out: EC50
[9] = system: ZR-75-1; assay: CellTiter-Glo Viability Assay, breast cancer; assay type: cell-based; conditions: Homo sapiens, 96 h; ZR-75-1, breast cancer, four days; read-out: EC50
[10] = system: all 50 cell lines; assay: CellTiter-Glo Viability Assay, average across all cell lines; assay type: cell-based; conditions: Homo sapiens; across all 50 cell lines; read-out: average EC50 for inhibition of cancer cell proliferation
Summary of the method: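 Proliferation of a multi-tissue human cancer line panel is assessed over four days at 37° C and 5% CO2, seeding 300-3,000 cells/well. Viability is quantified by CellTiter-Glo luminescence, and EC50 values are calculated.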

[11] = system: colorectal cancer (6 cell lines); assay: CellTiter-Glo Viability Assay, colorectal cancer; assay type: cell-based; conditions: Homo sapiens, inhibition of cancer cell proliferation
[12] = system: haematopoietic & lymphoid tumors (13 cell lines); assay: CellTiter-Glo Viability Assay, haematopoietic & lymphoid tumors; assay type: cell-based; conditions: Homo sapiens, inhibition of cancer cell proliferation
[13] = system: liver cancer (3 cell lines); assay: CellTiter-Glo Viability Assay, liver cancer; assay type: cell-based; conditions: Homo sapiens, inhibition of cancer cell proliferation
[14] = system: lung cancer (4 cell lines); assay: CellTiter-Glo Viability Assay, lung cancer; assay type: cell-based; conditions: Homo sapiens, inhibition of cancer cell proliferation
[15] = system: ovarian cancer (4 cell lines); assay: CellTiter-Glo Viability Assay, ovarian cancer; assay type: cell-based; conditions: Homo sapiens, inhibition of cancer cell proliferation
[16] = system: pancreatic cancer (8 cell lines); assay: CellTiter-Glo Viability Assay, pancreatic cancer; assay type: cell-based; conditions: Homo sapiens, inhibition of cancer cell proliferation
[17] = system: prostate cancer (5 cell lines); assay: CellTiter-Glo Viability Assay, prostate cancer; assay type: cell-based; conditions: Homo sapiens
[18] = molecular target: CLK3 (Homo sapiens, UniProt P49761); assay: CLK3 kinase activity assay (Z-lyte, Ser/Thr 18 peptide)
[19] = HCT-116, HCT116 cell line, read-out: Colorectal cancer, EC50 (μM) HCT116
[20] = HT-29, HT29 cell line, read-out: Colorectal cancer, EC50 (μM) HT29
[21] = SW-620, SW620 cell line, read-out: Colorectal cancer, EC50 (μM) SW620
[22] = DLD-1 cell line, read-out: Colorectal cancer, EC50 (μM) DLD-1
[23] = SW48 cell line, read-out: Colorectal cancer, EC50 (μM) SW48
[24] = DND41, DND-41 cell line, read-out: Haematopoietic & Lymphoid tumors, EC50 (μM) DND-41
[25] = MV4-11, MV-4-11 cell line, read-out: Haematopoietic & Lymphoid tumors, EC50 (μM) MV-4-11
[26] = Rec1, REC-1 cell line, read-out: Haematopoietic & Lymphoid tumors, EC50 (μM) REC-1
[27] = SU-DHL-4, SUDHL4 cell line, read-out: Haematopoietic & Lymphoid tumors, EC50 (μM) SUDHL4
[28] = HL-60 cell line, read-out: Haematopoietic & Lymphoid tumors, EC50 (μM) HL-60
[29] = JM1 cell line, read-out: Haematopoietic & Lymphoid tumors, EC50 (μM) JM1
[30] = JURKAT, Clone E6-1 cell line, read-out: Haematopoietic & Lymphoid tumors, EC50 (μM) JURKAT, Clone E6-1
[31] = JeKo-1 cell line, read-out: Haematopoietic & Lymphoid tumors, EC50 (μM) JeKo-1
[32] = KASUMI-1 cell line, read-out: Haematopoietic & Lymphoid tumors, EC50 (μM) KASUMI-1
[33] = Loucy cell line, read-out: Haematopoietic & Lymphoid tumors, EC50 (μM) Loucy
[34] = MOLT-4 cell line, read-out: Haematopoietic & Lymphoid tumors, EC50 (μM) MOLT-4
[35] = TF-1 cell line, read-out: Haematopoietic & Lymphoid tumors, EC50 (μM) TF-1
[36] = TOLEDO cell line, read-out: Haematopoietic & Lymphoid tumors, EC50 (μM) TOLEDO
[37] = SNU-398, SNU398 cell line, read-out: Liver cancer, EC50 SNU398
[38] = HEPG2 cell line, read-out: Liver cancer, EC50 HEPG2
[39] = PLC/PRF/5 cell line, read-out: Liver cancer, EC50 PLC/PRF/5
[40] = A-427, A427 cell line, read-out: Lung cancer, EC50 (μM) A427
[41] = HCC78, HCC-78 cell line, read-out: Lung cancer, EC50 (μM) HCC-78
[42] = NCI-H460 cell line, read-out: Lung cancer, EC50 (μM) NCI-H460
[43] = NCI-H522 cell line, read-out: Lung cancer, EC50 (μM) NCI-H522
[44] = PA-1, PA1 cell line, read-out: Ovarian cancer, EC50 (μM) PA1
[45] = TOV112D, TOV-112D cell line, read-out: Ovarian cancer, EC50 (μM) TOV-112D
[46] = OV-90 cell line, read-out: Ovarian cancer, EC50 (μM) OV-90
[47] = OVCAR-3 cell line, read-out: Ovarian cancer, EC50 (μM) OVCAR-3
[48] = BXPC-3, BxPC3 cell line, read-out: Pancreatic cancer, EC50 BxPC3
[49] = CAPAN-1, Capan1 cell line, read-out: Pancreatic cancer, EC50 Capan1
[50] = Capan-2, Capan2 cell line, read-out: Pancreatic cancer, EC50 Capan2
[51] = MIA PaCa-2 cell line, read-out: Pancreatic cancer, EC50 MIA PaCa-2
[52] = PANC 05.04 cell line, read-out: Pancreatic cancer, EC50 PANC 05.04
[53] = PANC-1 cell line, read-out: Pancreatic cancer, EC50 PANC-1
[54] = UPAFII cell line, read-out: Pancreatic cancer, EC50 UPAFII
[55] = DU-145, read-out: Prostate cancer EC50 Du-145
[56] = PC-3, PC3 cell line, inhibition of cancer cell proliferation, read-out: Prostate cancer EC50 PC3
[57] = 22Rv1 cell line, inhibition of cancer cell proliferation, read-out: Prostate cancer EC50 22Rv1
[58] = LNCap clone FGC cell line, inhibition of cancer cell proliferation, read-out: Prostate cancer EC50 LNCap clone FGC
[59] = VCaP (Sigma) cell line, inhibition of cancer cell proliferation, read-out: Prostate cancer EC50 VCaP (Sigma)

T1 sequence (P49760 whole entry): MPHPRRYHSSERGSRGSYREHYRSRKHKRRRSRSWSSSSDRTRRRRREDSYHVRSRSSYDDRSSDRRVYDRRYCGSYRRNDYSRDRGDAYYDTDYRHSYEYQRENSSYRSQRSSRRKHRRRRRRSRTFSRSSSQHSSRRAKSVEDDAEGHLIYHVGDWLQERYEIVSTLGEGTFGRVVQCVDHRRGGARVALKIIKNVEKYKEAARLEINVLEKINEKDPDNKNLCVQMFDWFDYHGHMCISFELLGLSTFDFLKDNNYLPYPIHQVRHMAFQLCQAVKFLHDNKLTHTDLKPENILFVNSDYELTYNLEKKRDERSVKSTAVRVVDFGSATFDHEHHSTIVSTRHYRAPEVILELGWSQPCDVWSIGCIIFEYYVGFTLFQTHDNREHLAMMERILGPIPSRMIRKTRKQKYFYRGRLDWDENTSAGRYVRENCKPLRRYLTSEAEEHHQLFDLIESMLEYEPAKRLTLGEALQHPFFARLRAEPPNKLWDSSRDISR
Chain of CLK3 (P49761 whole entry): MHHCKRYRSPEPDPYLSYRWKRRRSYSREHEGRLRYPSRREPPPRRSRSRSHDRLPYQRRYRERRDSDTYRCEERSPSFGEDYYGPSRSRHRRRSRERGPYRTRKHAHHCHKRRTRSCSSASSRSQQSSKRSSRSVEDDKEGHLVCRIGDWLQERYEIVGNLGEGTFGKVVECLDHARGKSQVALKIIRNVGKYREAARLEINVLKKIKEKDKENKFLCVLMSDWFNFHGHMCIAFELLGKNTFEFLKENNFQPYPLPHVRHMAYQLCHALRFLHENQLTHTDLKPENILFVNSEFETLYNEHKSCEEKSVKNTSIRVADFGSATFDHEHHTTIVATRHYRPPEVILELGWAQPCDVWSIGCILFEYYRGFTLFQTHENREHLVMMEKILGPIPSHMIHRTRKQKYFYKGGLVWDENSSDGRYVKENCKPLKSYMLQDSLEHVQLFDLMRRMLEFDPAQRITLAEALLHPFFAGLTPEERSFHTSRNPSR

CN(C)Cc1cncc(-c2ccc3[nH]nc(-c4cc5c(-c6ccoc6)ccnc5[nH]4)c3c2)c1 [Compound 51]
EC50 [1]: 0.0014 µM | EC50 [2]: > 10 µM | EC50 [3]: > 10 µM | EC50 [4]: 7.19 µM | EC50 [5]: 0.407 µM | EC50 [6]: > 10 µM | EC50 [7]: > 10 µM | EC50 [8]: > 10 µM | EC50 [9]: > 10 µM | EC50 [10]: 6.51 µM | EC50 [11, 19]: 3.45 µM | EC50 [11, 20]: > 10 µM | EC50 [11, 21]: 2.34 µM | EC50 [11, 22]: 1.64 µM | EC50 [11, 23]: 3.77 µM | EC50 [12, 24]: 0.853 µM | EC50 [12, 25]: 0.406 µM | EC50 [12, 26]: 0.527 µM | EC50 [12, 27]: 0.501 µM | EC50 [12, 28]: 9.46 µM | EC50 [12, 29]: 0.195 µM | EC50 [12, 30]: 2.79 µM | EC50 [12, 31]: 0.713 µM | EC50 [12, 32]: 5.07 µM | EC50 [12, 33]: 1.28 µM | EC50 [12, 34]: 7.26 µM | EC50 [12, 35]: 7.92 µM | EC50 [12, 36]: 0.302 µM | EC50 [13, 37]: 0.232 µM | EC50 [13, 38]: > 10 µM | EC50 [13, 39]: > 10 µM | EC50 [14, 40]: > 10 µM | EC50 [14, 41]: > 10 µM | EC50 [14, 42]: > 10 µM | EC50 [14, 43]: 5.83 µM | EC50 [15, 44]: 8.98 µM | EC50 [15, 45]: > 10 µM | EC50 [15, 46]: > 10 µM | EC50 [15, 47]: 3.22 µM | EC50 [16, 48]: > 10 µM | EC50 [16, 49]: > 10 µM | EC50 [16, 50]: > 10 µM | EC50 [16, 51]: 3.52 µM | EC50 [16, 52]: > 10 µM | EC50 [16, 53]: > 10 µM | EC50 [16, 54]: 8.92 µM | EC50 [17, 55]: > 10 µM | EC50 [17, 56]: 7.87 µM | EC50 [17, 57]: 0.859 µM | EC50 [17, 58]: > 10 µM | EC50 [17, 59]: > 10 µM | EC50 [18]: 0.031 µM

CC(C)CC(=O)Nc1cncc(-c2ccc3[nH]nc(-c4cc5c(N6CCCCC6)cncc5[nH]4)c3c2)c1 [Compound 50]
EC50 [1]: 0.0038 µM | EC50 [2]: 1.53 µM | EC50 [3]: 0.919 µM | EC50 [4]: 0.75 µM | EC50 [5]: 0.828 µM | EC50 [6]: 3.52 µM | EC50 [7]: 1.2 µM | EC50 [8]: 1.74 µM | EC50 [9]: 1.11 µM | EC50 [10]: 1.59 µM | EC50 [11, 19]: 0.522 µM | EC50 [11, 20]: 2.8 µM | EC50 [11, 21]: 0.239 µM | EC50 [11, 22]: 1.17 µM | EC50 [11, 23]: 0.312 µM | EC50 ([11]; SW480 cell line, read-out: Colorectal cancer, EC50 (μM) SW480): 0.274 µM | EC50 [12, 24]: 0.258 µM | EC50 [12, 25]: 0.122 µM | EC50 [12, 26]: 3.62 µM | EC50 [12, 27]: 0.419 µM | EC50 [12, 28]: 0.767 µM | EC50 [12, 29]: 0.256 µM | EC50 [12, 30]: 1.07 µM | EC50 [12, 31]: 0.159 µM | EC50 [12, 32]: 1.27 µM | EC50 [12, 33]: 0.174 µM | EC50 [12, 34]: 1.29 µM | EC50 [12, 35]: 2.73 µM | EC50 [12, 36]: 0.441 µM | EC50 [13, 37]: 0.091 µM | EC50 [13, 38]: 1.46 µM | EC50 [13, 39]: 3.54 µM | EC50 [14, 40]: 0.489 µM | EC50 [14, 41]: 0.92 µM | EC50 [14, 42]: 9.68 µM | EC50 [14, 43]: 0.31 µM | EC50 [15, 44]: 1.09 µM | EC50 [15, 45]: 0.419 µM | EC50 [15, 46]: 1.34 µM | EC50 [15, 47]: 0.67 µM | EC50 [16, 48]: 3.41 µM | EC50 [16, 49]: 3.51 µM | EC50 [16, 50]: 2.21 µM | EC50 [16, 51]: 0.381 µM | EC50 [16, 52]: 2.92 µM | EC50 [16, 53]: > 10 µM | EC50 [16, 54]: 1.72 µM | EC50 [17, 55]: 0.955 µM | EC50 [17, 56]: 0.759 µM | EC50 [17, 57]: 0.833 µM | EC50 [17, 58]: 1.64 µM | EC50 [17, 59]: 1.79 µM | EC50 [18]: 0.0351 µM
